# Measurements from PubChem BioAssay AID328 (DTP/NCI, 2004).
# Several values for one entry are separate records, joined by “and”; a condition that tells them apart may be missing. Equal values may be shown once. Toxic doses and inconclusive results are not listed.
# Test system: BDF1 mice, P388 leukemia ip, median survival T/C
# Assay: NCI In Vivo Anticancer Drug Screen. Data for tumor model P388 Leukemia (intraperitoneal) in B6D2F1 (BDF1) mice
# Conditions: endpoint: median survival time, higher = longer survival
# Experimental: The antitumor activity of compounds was measured in mice bearing transplantable tumors. Survival or tumor size were measured and the results are expressed as the measurement made in the treated group (T) divided by the measurement made in the vehicle treated control group (C). The tumor model used in this assay is P388 Leukemia (intraperitoneal) in B6D2F1 (BDF1) mice
# [1] = dose: 100.0 mg/kg/injection, schedule: Q01DX001 (ip), vehicle: Klucel (hydroxypropylcellulose) (HPC)
# [2] = dose: 100.0 mg/kg/injection, schedule: Q04DX003 (ip), vehicle: Klucel (hydroxypropylcellulose) (HPC)
# [3] = dose: 200.0 mg/kg/injection, schedule: Q01DX001 (ip), vehicle: Klucel (hydroxypropylcellulose) (HPC)
# [4] = dose: 200.0 mg/kg/injection, schedule: Q04DX003 (ip), vehicle: Klucel (hydroxypropylcellulose) (HPC)
# [5] = dose: 400.0 mg/kg/injection, schedule: Q01DX001 (ip), vehicle: Klucel (hydroxypropylcellulose) (HPC)
# [6] = dose: 100.0 mg/kg/injection, schedule: Q04DX003 (ip), vehicle: saline with Tween-80
# [7] = dose: 12.5 mg/kg/injection, schedule: Q04DX003 (ip), vehicle: saline with Tween-80
# [8] = dose: 25.0 mg/kg/injection, schedule: Q04DX003 (ip), vehicle: saline with Tween-80
# [9] = dose: 400.0 mg/kg/injection, schedule: Q04DX003 (ip), vehicle: Klucel (hydroxypropylcellulose) (HPC)
# [10] = dose: 50.0 mg/kg/injection, schedule: Q01DX009 (ip), vehicle: saline with Tween-80
# [11] = dose: 100.0 mg/kg/injection, schedule: Q01DX009 (ip), vehicle: saline with Tween-80
# [12] = dose: 200.0 mg/kg/injection, schedule: Q01DX009 (ip), vehicle: saline with Tween-80
# [13] = dose: 50.0 mg/kg/injection, schedule: Q01DX009 (ip), vehicle: saline
# [14] = dose: 100.0 mg/kg/injection, schedule: Q01DX009 (ip), vehicle: saline
# [15] = dose: 200.0 mg/kg/injection, schedule: Q01DX009 (ip), vehicle: saline
# [16] = dose: 150.0 mg/kg/injection, schedule: Q04DX003 (ip), vehicle: saline with Tween-80
structure (smiles),measurement,setting,value
COc1ccc(C=O)c(Cl)c1OC,T/C,"dose: 12.0 mg/kg/injection, schedule: Q04DX003 (ip), vehicle: Klucel (hydroxypropylcellulose) (HPC)",90 % of control
same,T/C,"dose: 25.0 mg/kg/injection, schedule: Q04DX003 (ip), vehicle: Klucel (hydroxypropylcellulose) (HPC)",100 % of control
same,T/C,"dose: 50.0 mg/kg/injection, schedule: Q04DX003 (ip), vehicle: Klucel (hydroxypropylcellulose) (HPC)",95 % of control
same,T/C,[1],113 % of control
same,T/C,[2],109 % of control
same,T/C,[3],109 % of control
same,T/C,[4],104 % of control
same,T/C,[5],113 % of control
O=P(NC1CCCC1)(N1CC1)N1CC1,T/C,"dose: 1.56 mg/kg/injection, schedule: Q01DX009 (ip), vehicle: saline",116 % of control
same,T/C,"dose: 6.25 mg/kg/injection, schedule: Q01DX009 (ip), vehicle: saline",187 % of control and 220 % of control
same,T/C,"dose: 12.5 mg/kg/injection, schedule: Q01DX009 (ip), vehicle: saline",91 % of control and 104 % of control
O=C1OCc2cc3ccccc3nc21,T/C,[6],109 % of control
same,T/C,"dose: 200.0 mg/kg/injection, schedule: Q04DX003 (ip), vehicle: saline with Tween-80",100 % of control
same,T/C,"dose: 400.0 mg/kg/injection, schedule: Q04DX003 (ip), vehicle: saline with Tween-80",104 % of control
S=P(N1CCOCC1)(N1CC1)N1CC1,T/C,"dose: 2.5 mg/kg/injection, schedule: Q01DX010 (ip), vehicle: saline",109 % of control
same,T/C,"dose: 20.0 mg/kg/injection, schedule: Q01DX010 (ip), vehicle: saline",155 % of control
C=CC[N+](CC=C)(CC=C)CC[N+](CC=C)(CC=C)CC=C,T/C,"dose: 12.5 mg/kg/injection, schedule: Q01DX009 (ip), vehicle: water",102 % of control
same,T/C,[7],104 % of control
same,T/C,"dose: 25.0 mg/kg/injection, schedule: Q01DX009 (ip), vehicle: water",105 % of control
same,T/C,[8],104 % of control
same,T/C,"dose: 50.0 mg/kg/injection, schedule: Q01DX009 (ip), vehicle: water",115 % of control
same,T/C,"dose: 50.0 mg/kg/injection, schedule: Q04DX003 (ip), vehicle: saline with Tween-80",101 % of control
O=[N+]([O-])c1ccc(/C=C/c2ccccn2)s1,T/C,[2],100 % of control
same,T/C,[4],100 % of control
same,T/C,[9],100 % of control
O=[N+]([O-])c1ccc(SC2=NCCN2)c(Cl)c1,T/C,[10],94 % of control
same,T/C,[11],103 % of control
same,T/C,[12],112 % of control
O=C(O)C1=CC(O)C(O)C(O)C1 (stereo unspecified),T/C,[13],87 % of control
same,T/C,[14],100 % of control
same,T/C,"dose: 100.0 mg/kg/injection, schedule: Q04DX003 (ip), vehicle: saline sonified",100 % of control
same,T/C,[15],91 % of control
same,T/C,"dose: 200.0 mg/kg/injection, schedule: Q04DX003 (ip), vehicle: saline sonified",100 % of control
same,T/C,"dose: 400.0 mg/kg/injection, schedule: Q04DX003 (ip), vehicle: saline sonified",100 % of control
COc1c(Cl)cc2c(c1OC)N(C)C1N3C(=O)C4(C)SSC3(C(=O)N4C)C(O)C21O (stereo unspecified),T/C,"dose: 0.12 mg/kg/injection, schedule: Q01DX009 (ip), vehicle: Klucel (hydroxypropylcellulose) (HPC)",86 % of control
same,T/C,"dose: 0.25 mg/kg/injection, schedule: Q01DX009 (ip), vehicle: Klucel (hydroxypropylcellulose) (HPC)",109 % of control
CCOC(=O)NC(C)(C)CN(C(=O)OCC)c1ccccc1,T/C,"dose: 44.0 mg/kg/injection, schedule: Q04DX003 (ip), vehicle: saline with Tween-80",95 % of control
same,T/C,"dose: 66.0 mg/kg/injection, schedule: Q04DX003 (ip), vehicle: saline with Tween-80",104 % of control
same,T/C,[6],90 % of control
same,T/C,[16],95 % of control
CCCCCCc1nc2nc(Cl)c(Cl)nc2[nH]1,T/C,"dose: 0.78 mg/kg/injection, schedule: Q01DX009 (ip), vehicle: saline with Tween-80",100 % of control
same,T/C,"dose: 1.56 mg/kg/injection, schedule: Q01DX009 (ip), vehicle: saline with Tween-80",89 % of control
same,T/C,"dose: 3.12 mg/kg/injection, schedule: Q01DX009 (ip), vehicle: saline with Tween-80",92 % of control
same,T/C,"dose: 6.25 mg/kg/injection, schedule: Q01DX009 (ip), vehicle: saline with Tween-80",92 % of control
same,T/C,"dose: 12.5 mg/kg/injection, schedule: Q01DX009 (ip), vehicle: saline with Tween-80",95 % of control
S=c1nc[nH]c2c1ncn2CN1CCCCC1,T/C,"dose: 66.0 mg/kg/injection, schedule: Q01DX009 (ip), vehicle: saline with Tween-80",122 % of control
same,T/C,"dose: 150.0 mg/kg/injection, schedule: Q01DX009 (ip), vehicle: saline with Tween-80",154 % of control
CCCCOC1OCN(CCOC)CC1(C)C (stereo unspecified),T/C,[10],109 % of control
same,T/C,[13],116 % of control
same,T/C,[14],109 % of control
same,T/C,[12],153 % of control
same,T/C,[15],118 % of control
O=C1Nc2c(Cl)cc(Cl)cc2C12Nc1ccccc1S2 (stereo unspecified),T/C,[10],112 % of control
same,T/C,[11],96 % of control
same,T/C,[12],107 % of control
CC(C)c1ncc(CCCN=C(N)N)[nH]c1=O,T/C,"dose: 37.5 mg/kg/injection, schedule: Q01DX009 (ip), vehicle: saline",98 % of control
same,T/C,"dose: 75.0 mg/kg/injection, schedule: Q01DX009 (ip), vehicle: saline",94 % of control
same,T/C,"dose: 150.0 mg/kg/injection, schedule: Q01DX009 (ip), vehicle: saline",90 % of control
[Cl][Pt+2][Cl].[NH-]C1CCC1.[NH-]C1CCC1,T/C,"dose: 12.5 mg/kg/injection, schedule: Q01DX009 (ip), vehicle: Klucel (hydroxypropylcellulose) (HPC)",173 % of control and 201 % of control
same,T/C,"dose: 25.0 mg/kg/injection, schedule: Q01DX009 (ip), vehicle: Klucel (hydroxypropylcellulose) (HPC)",195 % of control and 213 % of control
same,T/C,"dose: 50.0 mg/kg/injection, schedule: Q01DX009 (ip), vehicle: Klucel (hydroxypropylcellulose) (HPC)",94 % of control and 115 % of control
CCN(CC)CCCOC(=O)/C=C/c1c(C)[nH]c(=O)[nH]c1=O,T/C,"dose: 25.0 mg/kg/injection, schedule: Q04DX003 (ip), vehicle: saline",104 % of control
same,T/C,"dose: 50.0 mg/kg/injection, schedule: Q04DX003 (ip), vehicle: saline",117 % of control
same,T/C,"dose: 100.0 mg/kg/injection, schedule: Q04DX003 (ip), vehicle: saline",90 % of control
Cc1c2cnccc2c(C)c2c1c1ccccc1n2CCNCCO,T/C,"dose: 0.44 mg/kg/injection, schedule: Q04DX003 (ip), vehicle: saline",118 % of control
same,T/C,"dose: 1.5 mg/kg/injection, schedule: Q04DX003 (ip), vehicle: saline",109 % of control
same,T/C,[6],118 % of control
same,T/C,[16],90 % of control
O=C1c2ccccc2-c2cc(-c3ccccc3)cc(-c3ccccc3)c21,T/C,[2],100 % of control
same,T/C,[4],100 % of control
same,T/C,[9],100 % of control
CC(OC1C(N)C(O)OC(CO)C1O)C(=O)O (stereo unspecified),T/C,"dose: 50.0 mg/kg/injection, schedule: Q01DX005 (ip), vehicle: saline",103 % of control
same,T/C,"dose: 100.0 mg/kg/injection, schedule: Q01DX005 (ip), vehicle: saline",109 % of control
same,T/C,"dose: 200.0 mg/kg/injection, schedule: Q01DX005 (ip), vehicle: saline",107 % of control
C/C(=N\N=C(/C)c1ccc(Cl)cc1)c1ccc(Cl)cc1,T/C,"dose: 100.0 mg/kg/injection, schedule: Q01DX009 (ip), vehicle: Klucel (hydroxypropylcellulose) (HPC)",95 % of control
same,T/C,"dose: 200.0 mg/kg/injection, schedule: Q01DX009 (ip), vehicle: Klucel (hydroxypropylcellulose) (HPC)",90 % of control
same,T/C,"dose: 400.0 mg/kg/injection, schedule: Q01DX009 (ip), vehicle: Klucel (hydroxypropylcellulose) (HPC)",113 % of control
Clc1ccc(C#Cc2ccc(Cl)cc2)cc1,T/C,"dose: 6.25 mg/kg/injection, schedule: Q04DX003 (ip), vehicle: saline with Tween-80",92 % of control
same,T/C,[7],92 % of control
same,T/C,[8],96 % of control
CCCCCCCCCCCCCCOc1ccc(C=O)cc1OC,T/C,[1],100 % of control
same,T/C,[3],100 % of control
same,T/C,[5],100 % of control
O=C1CN(C2CCCCC2)CC(=O)N2C(c3ccccc3)CCCN12 (stereo unspecified),T/C,"dose: 50.0 mg/kg/injection, schedule: Q01DX005 (ip), vehicle: saline with Tween-80",97 % of control
same,T/C,"dose: 100.0 mg/kg/injection, schedule: Q01DX005 (ip), vehicle: saline with Tween-80",103 % of control
same,T/C,"dose: 200.0 mg/kg/injection, schedule: Q01DX005 (ip), vehicle: saline with Tween-80",118 % of control
